Experimental data taken from patent publication US6413739B1, “AMPA-binding human GLuR3 receptors” (priority 1992, dated 2002).

Experiments:
human GluR3A receptor [1] = assay: AMPA-binding assay, membranes of transfected COS-1 cells
Procedure: (§1) Transfected cells in the frozen state were resuspended in ice-cold distilled water using a hand homogenizer, sonicated for 5 seconds, and then centrifuged for 20 minutes at 50,000 g. The supernatant was discarded and the membrane pellet stored frozen at −70 C.
(§2) COS cell membrane pellets were suspended in ice cold 50 mM Tris-HCl (pH 7.55, 5 C) and centrifuged again at 50,000 g for 10 minutes in order to remove endogenous glutamate that would compete for binding. Pellets were resuspended in ice cold 50 mM Tris-HCl (pH 7.55) buffer and the resultant membrane preparation was used as tissue source for binding experiments described below. Proteins were determined using the Pierce Reagent with BSA as standard.
Binding assays were then performed, using an amount of COS-derived membrane equivalent to from 25-100 ug as judged by protein determination and selected radiolabelled ligand. In particular, for AMPA-binding assays, incubation mixtures consisted of 25-100 ug tissue protein and D,L-alpha-[5-methyl-3H]amino-3-hydroxy-5-methylisoxazole-4-propionic acid (3H-AMPA, 27.6 Ci/mmole, 10 nM final) with 0.1 M KSCN and 2.5 mM CaCl2 in the 1 ml final volume. Non-specific […] binding was determined in the presence of 1 mM L-glutamate. […] Pellets were washed twice in 6 ml of the cold incubation buffer, then 5 ml of Beckman Ready-Protein Plus scintillation cocktail was added, for counting.

human GluR3B receptor = assay: binding assays with membrane preparations of engineered mammalian cells
From the text: This feature, coupled with the medically significant connection between AMPA-type receptors and neurological disorders and disease indicate that the present receptors, as well as AMPA-binding fragments and variants thereof, will serve as valuable tools in the screening and discovery of ligands useful to modulate in vivo interactions between such receptors and their natural ligand, glutamate. Thus, a key aspect of the present invention resides in the construction of cells that are engineered genetically to produce human GluR3 receptor, to serve as a ready and homogeneous source of receptor for use in in vitro ligand binding and/or channel activation assays.

human GluR3 receptor = assay: ligand binding assay (NMDA), membranes of transfected COS cells; conditions: COS cell membranes
human GluR3A receptor [2] = assay: kainate-binding assay, membranes of transfected COS-1 cells; conditions: COS cell membranes; [vinylidene-3H] kainic acid 5 nM
Procedure: as §1, §2
For kainate-binding assays, incubation mixtures consisted of 25-100 ug tissue protein and [vinylidene-3H] kainic acid (58 Ci/mmole, 5 nM final) in the cold incubation buffer, 1 ml final volume. Non-specific binding was determined in the presence of 1 mM L-glutamate. Samples were incubated as for the AMPA-binding assays, and bound and free ligand were separated by rapid filtration using a Brandel cell harvester and GF/B filters pre-soaked in ice-cold 0.3% polyethyleneimine. Filters were washed twice in 6 ml of the cold incubation buffer, then placed in scintillation vials with 5 ml of Beckman Ready-Protein Plus scintillation cocktail for counting.

Cc1onc(O)c1CC(N)C(=O)O (stereo not drawn) [AMPA, alpha-amino-3-hydroxy-5-methyl-isoxazole-4propionate]
specific binding (human GluR3A receptor [1]; 10 nM [3H]-AMPA, COS cell membranes, non-specific binding with 1 mM L-glutamate, FIG. 7): 25-30 fmole/mg protein
selective binding relative to kainate and NMDA (human GluR3A receptor [1]; human GluR3A, membrane preparations): bind selectively
selective binding relative to kainate and NMDA (human GluR3B receptor): bind selectively

CN[C@H](CC(=O)O)C(=O)O [NMDA, N-methyl-D-aspartate]
binding of NMDA (human GluR3 receptor): little or no demonstrable binding

C=C(C)[C@H]1CN[C@H](C(=O)O)[C@H]1CC(=O)O [kainate, kainic acid]
binding of kainate (human GluR3A receptor [2]): little or no demonstrable binding
